Patent US20250120943A1, “RIFAMYCIN OPHTHALMIC COMPOSITION AND USE THEREOF” (AMD THERAPEUTICS LLC, priority 2022, published 2025)
Marks after values point to notes of the source that are not given here.

Tests used:
[1] = Rabbit, 0.5%, 50 μL, 250 μg; Sigurdsson et al. 2007; cited from earlier work
[2] = system: Neovascularization in retina of oxygen-induced retinopathy rat models; experiment: Oxygen-induced retinopathy rat model, capillaries counted in histology sections; type: in vivo, Sprague-Dawley rat; details: vehicle only 16.3
[3] = Retina exposure level of rifampicin after topical eye drops (LC/MS); type: in vivo, Sprague-Dawley rats; details: rat, topical eye drops 0.25% rifampicin (Ex. 1A), average of n = 3
Procedure: The remaining two rats received the same application, but 10 drops of the eye drops, in each eye under isoflurane sedation. A single drop contained 5 μL of the above-described formulation, and application of each drug drop was carried out with intervals of 30 minutes. After the eye drop application, the retina was excised from each rat under a dissection microscope. In addition, “non-treated” negative controls were used, and the retina was excised from two rats without performing any treatments on the rats. The retina was placed in a 1.5-ml microcentrifuge tube (1 retina/tube), and was fully washed with DPBS. After completion of the washing procedures, the retinal tissues in the microcentrifuge tube were frozen in dry ice, and were then preserved for quantification by LC/MS analysis.
At time points of 1 hour, 3 hours, and 7 hours after the application of the eye drops, the retinal tissues were excised from the rats under a dissection microscope. In addition, “non-treated” negative controls were used, and the retina was excised from one rat without performing any treatments on the rats. The retina was placed in a 1.5-ml microcentrifuge tube (1 retina/tube), and was fully washed with DPBS. After completion of the washing procedures, the retinal tissues in the microcentrifuge tube were frozen in dry ice, and were then preserved for quantification by LC/MS analysis. […]

[4] = system: CNV induced in sub-retina tissues; experiment: Mouse laser-induced CNV model, CNV area by FITC-dextran fluorescence; type: in vivo, C57BL/6J mice; details: for Average CNV area (%): n = 10, day 7, vehicle = 100
Procedure: Eyes of C57BL/6J mice were laser irradiated, and CNV were induced in sub-retina tissues in the eyes. […] In 7 days after the laser irradiation, a FITC-dextran solution was administered to the tail vein. The eyeballs were removed under euthanasia, and the removed eyeballs were fixed with 4% paraformaldehyde phosphate buffer. The cornea, iris and lens were excised, and retinal tissues other than retinal pigment epithelium cells were stripped using a microspacer. The optic cups were divided into 4 to 6 sections using a corneal microscissor, and they were placed on a slide glass. […] The CNV areas were quantified using ImageJ (TABLES 11-1 and 11-2; Image software publicly available by NIH).

[5] = Mouse pharmacokinetics after SC injection, sclera+sub-retina complex (LC/MS)
Procedure: This effective dosage and administration route was evaluated in dose escalation studies by using the mouse laser-induced CNV model. […] In 1 hr, 3 hr, 6 hr, and 18 hr after the SC injection, eyeballs were extracted. Tissue from the retina and tissue from the sclera+sub-retina complex were isolated and extracted. These tissues were immediately frozen in liquid nitrogen. The tissue was subjected to LC/MS analysis for quantitation. The detection limit was 0.25 ng/g tissue.

SMILES: C[C@@H]1C[C@H]2[C@@H]3CCC4=CC(=O)C=C[C@]4(C)[C@@]3(F)[C@@H](O)C[C@]2(C)[C@@]1(O)C(=O)CO [Dexamethasone]
- Drug amount detected in retina [1]: About 33 ng/1 g ng/1 g of retinal tissues

SMILES: CO[C@H]1/C=C/O[C@@]2(C)Oc3c(C)c(O)c4c(O)c(c(/C=N/N5CCN(C)CC5)c(O)c4c3C2=O)NC(=O)/C(C)=C\C=C\[C@H](C)[C@H](O)[C@@H](C)[C@@H](O)[C@@H](C)[C@H](OC(C)=O)[C@@H]1C [Rifampicin, rifampicin]
- Average numbers of capillaries in high power field per eye ([2]; 0.25% rifampicin topical eye drop (Ex. 1A), three times daily P15-P19, n = 3, P value = 0.0058): 7.78
- Average numbers of capillaries in high power field per eye ([2]; 0.5% rifampicin SC injection (Ex. 6A), 20 mg/kg once a day P15-P19, n = 3, P value = 0.0102): 9.28
- Rifampicin extracted from retina ([3]; 3 drops of 5 μL at 30 min intervals): 1,288* ng/1 g of tissues
- Rifampicin extracted from retina ([3]; 10 drops of 5 μL at 30 min intervals): 2,939* ng/1 g of tissues
- Dosage that significantly inhibited neovascularization (effective dosage) ([4]; SC injection, mouse laser-induced CNV model): 0.7 mg/kg
- Average CNV area (%) ([4]; SC once daily 0.2 mg/kg, P >0.05 (TABLE 11-1)): 90.17%
- Average CNV area (%) ([4]; SC once daily 0.7 mg/kg, P 0.003 (TABLE 11-2)): 74.78%
- Average CNV area (%) ([4]; SC once daily 0.7 mg/kg, P 0.045 (TABLE 11-1)): 81.00%
- Average CNV area (%) ([4]; SC once daily 2 mg/kg, P 0.011 (TABLE 11-2)): 78.33%
- Ave. rifampicin delivered to sclera + sub-retina complex ([5]; SC 0.7 mg/kg, 18 hr, detection limit 0.25 ng/g tissue): BDL
- Share of rifampicin in sub-retina+sclera complex delivered to the sub-retina ([5]; SC injection): approximately 70%
